Reference: patent USRE41784E1, “Adhesive material” (Sony Corporation, priority 2000, dated 2010)
Like-named read-outs stand apart in the source and are kept apart here.

Columns and labels:
skin of rabbits [1] = test: Draize test (skin irritation, PII value); settings: for PII value: preferred acrylic/methacrylic acid esters; for PH value: starting material (component) of the adhesive materials
Description: (§1) The PII, or skin irritation, value is a skin toxicity index measured in accordance with the method defined by the Consumer Product Safety Commission of the USA (Draize Method; The Consumer Product Safely Commission of the USA, the Code of Federal Regulations, Title 16, Section 1500.41). A lower index corresponds to less pronounced skin irritation.
(§2) Hair was removed with the aid of an electric hair clipper from the lumbar regions of six healthy rabbits (body weight: 2.0-4.0 kg) to expose the skin over an area of about 10 cm^2. The skin on the right side of the vertebra was incised with a surgical knife over an area of 2.5 cm^2, creating a lesion. The skin on the left side of the vertebra was left intact, and pads obtained by applying 0.5 mL samples were affixed at two locations on the right and left of the vertebra. The pads were peeled off 24 and 72 hours following affixation, redness and swelling were visually observed, the results were graded using a five-point system (levels 0 to 4), a gross mean was obtained using the average values for each rabbit, and the gross mean value was termed the PII value.

skin of rabbits [2] = settings: rabbit, in vivo
Description: as §1, §2

[3] = tested on: mutant strain (his−) of Salmonella requiring histidine; settings: starting material (component) of the adhesive materials
Description: The Ames test referred to herein is also known as a mutagenicity test, and is one of tests in which bacteria are used to screen chemical substances for carcinogenicity or mutagenicity. […] This mutation is the result of DNA damage, and carcinogenicity is believed to become more pronounced with increased ease of mutation. Consequently, an adhesive material having high biological safety must give a negative result of the Ames test.
This test was performed using direct reverse mutation of a mutant strain (his−) of Salmonella requiring histidine to a non-requiring strain (his+) under the action of a test substance. A specific test method involved preparing histidine-free media to which a metabolically active substance (S9) bad been added, and histidine-free media devoid of the metabolically active substance (S9). The test substance was admixed into these media, a strain (his−) requiring histidine was cultured, and the bacterial colony count of a medium containing the test substance was compared with the bacterial colony count of a medium devoid of the substance. If the first value was greater than the second, the test result was concluded to be positive, otherwise the result was concluded to be negative.

C=C(C)C(=O)OCC(C)O (centres unmarked) [2-hydroxypropyl methacrylate]
PII value (skin of rabbits [1]): 0.0

Polypropylene glycol diacrylate
PH value (skin of rabbits [2]): 0.0 | PII value (skin of rabbits [2]): 0.0 | Mutagenicity [3]: negative

C=C(C)C(=O)OCC(C)(C)COC(=O)C(=C)C [Neopentyl glycol dimethacrylate]
PII value (skin of rabbits [1]): 0.0 | PH value (skin of rabbits [1]): 0.0 | Mutagenicity [3]: negative

1,3-butanediol methacrylate
PII value (skin of rabbits [1]): 0.0

C=C(C)C(=O)OCCO [hydroxyethyl methacrylate]
PII value (skin of rabbits [1]): 0.0

ditrimethylol propane tetraacrylate
PII value (skin of rabbits [1]): 0.0

C=CC(=O)OCCOc1ccccc1 [Phenoxyethyl acrylate]
PH value (skin of rabbits [1]): 1.5
